Consider 24 molecules from patent US20210277020A1, “HETEROCYCLIC COMPOUNDS AS MONOACYLGLYCEROL LIPASE INHIBITORS” (Hoffmann-La Roche Inc., priority 2018, published 2021).

Each structure is given as a SMILES string.

Usually IC50 stands for the concentration that gives 50% inhibition.

This assay concerns the target T1, MAGL (Homo sapiens, UniProt Q99685).
T1 sequence (Q99685 1-303): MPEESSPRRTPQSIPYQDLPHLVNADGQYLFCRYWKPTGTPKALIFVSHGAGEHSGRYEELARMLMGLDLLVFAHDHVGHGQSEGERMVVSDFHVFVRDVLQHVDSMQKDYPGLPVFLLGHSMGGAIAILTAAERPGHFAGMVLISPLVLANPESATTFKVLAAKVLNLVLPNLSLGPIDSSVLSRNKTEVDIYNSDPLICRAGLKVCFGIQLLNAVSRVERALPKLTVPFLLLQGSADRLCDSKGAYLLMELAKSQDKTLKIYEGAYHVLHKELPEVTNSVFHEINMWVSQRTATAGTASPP
Kind of assay: 2-AG assay: MAGL inhibition followed by hydrolysis of 2-arachidonoylglycerol to arachidonic acid, mass spectrometry. Particulars: measured in 2-AG assay (footnote [a]); substrate 2-arachidonoylglycerol 8 μM, 30 min at RT. It counts as biochemical. The text has this:
Alternatively, compounds were profiled for MAGL inhibitory activity by determining the enzymatic activity by following the hydrolysis of the natural substrate, 2-arachidonoylglycerol, resulting in arachidonic acid, which can be followed by mass spectrometry. This assay is hereinafter abbreviated “2-AG assay”.
Detection by mass spectrometry in the present 2-AG assay has the advantage over known optical assays that the natural enzyme substrate, 2-arachidonoylglycerol, can be used instead of structurally unrelated compounds needed for optical readouts (such as 4-NPA). It thereby delivers more relevant data for activity determination, reduces false positives and generally adds to data quality. In addition, this assay reduces the analysis time from about 10 minutes per sample with standard methods to under 10 seconds per sample. This allows for using the present 2-AG assay in a method for high throughput screening of compounds for their MAGL inhibitory activity.
The 2-AG assay was carried out in 384 well assay plates (PP, Greiner Cat #784201) in a total volume of 20 μL. Compound dilutions were made in 100% DMSO (VWR Chemicals 23500.297) in a polypropylene plate in 3-fold dilution steps to give a final concentration range in the assay from 12.5 μM to […]. 0.25 μL compound dilutions (100% DMSO) were added to 9 μL MAGL in assay buffer (50 mM TRIS (GIBCO, 15567-027), 1 mM EDTA (Fluka, 03690-100 mL), 0.01% (v/v) Tween. After shaking, the plate was incubated for 15 min at RT. To start the reaction, 10 μL 2-arachidonoylglycerol in assay buffer was added. The final concentrations in the assay was […] and 8 μM 2-arachidonoylglyerol. After shaking and 30 min incubation at RT, the reaction was quenched by the addition of 40 μL of acetonitrile containing 4 μM of d8-arachidonic acid. The amount of arachidonic acid was traced by an online SPE system (Agilent Rapidfire) coupled to a triple quadrupole mass spectrometer (Agilent 6460). A C18 SPE cartridge (G9205A) was used in an acetonitrile/water liquid setup. The mass spectrometer was operated in negative electrospray mode following the mass transitions 303.1→259.1 for arachidonic acid and 311.1→267.0 for d8-arachidonic acid. The activity of the compounds was calculated based on the ratio of intensities [arachidonic acid/d8-arachidonic acid].
In a preferred embodiment, the method for determining the MAGL inhibitory activity of a test compound according to the invention, comprises: • (i) providing a solution of a test compound; • (ii) adding the solution of step (i) to a solution of MAGL; • (iii) shaking the mixture obtained from step (ii); • (iv) incubating the mixture obtained from step (iii); • (v) adding a solution of 2-arachidonoylglycerol; • (vi) incubating the mixture obtained from step (v); • (vii) adding a solution of d8-arachidonic acid; and • (viii) determining the ratio of intensities arachidonic acid/d8-arachidonic acid using a mass spectrometer.
As to `O=C1CO[C@H]2CCN(C(=O)N3CC(C#Cc4ccc(F)cc4Cl)C3)C[C@H]2N1` [Example 135, (+)-(4aR,8aS)-6-[3-[2-(2-Chloro-4-fluorophenyl)ethynyl]azetidine-1-carbonyl]-4,4a,5,7,8,8a-hexahydropyrido[4,3-b][1,4]oxazin-3-one], the IC50 amounted to 13 nM.
Take `O=C1CO[C@H]2CCN(C(=O)N3CC(O)(C#Cc4ccccc4Cl)C3)C[C@H]2N1` [Example 190, (4aR,8aS)-6-[3-[2-(2-Chlorophenyl)ethynyl]-3-hydroxyazetidine-1-carbonyl]-4,4a,5,7,8,8a-hexahydropyrido[4,3-b][1,4]oxazin-3-one]: half-maximal inhibition (IC50) required 535 nM. Compared with the last molecule, the IC50 is about 41-fold higher.
In turn, `O=C1CO[C@H]2CCN(C(=O)N3CC(CNC(c4cccc(C(F)(F)F)c4)C(F)(F)F)C3)C[C@H]2N1` (stereo partly drawn) [Example 68, (4aR,8aS)-6-(3-(((2,2,2-Trifluoro-1-(3-(trifluoromethyl)phenyl)ethyl)amino)methyl)azetidine-1-carbonyl)hexahydro-2H-pyrido[4,3-b][1,4]oxazin-3(4H)-one] gave an IC50 of 18 nM.
Take `O=C1CO[C@H]2CCN(C(=O)N3CC(C#Cc4cc(F)ccc4Cl)C3)C[C@H]2N1` [Example 185, (4aR,8aS)-6-[3-[2-(2-Chloro-5-fluorophenyl)ethynyl]azetidine-1-carbonyl]-4,4a,5,7,8,8a-hexahydropyrido[4,3-b][1,4]oxazin-3-one]: the IC50 was 36 nM.
Turning to `O=C1CO[C@H]2CCN(C(=O)N3CC(CS(=O)(=O)c4ccc(C(F)(F)F)cc4Cl)C3)C[C@H]2N1` [Example 152, (4aR,8aS)-6-[3-[[2-Chloro-4-(trifluoromethyl)phenyl]sulfonylmethyl]azetidine-1-carbonyl]-4,4a,5,7,8,8a-hexahydropyrido[4,3-b][1,4]oxazin-3-one], the IC50 was 655 nM.
`O=C1CO[C@H]2CCN(C(=O)N3CC(SCc4c(F)cccc4C(F)(F)F)C3)C[C@H]2N1` [Example 295, (4aR,8aS)-6-(3-((2-Fluoro-6-(trifluoromethyl)benzyl)thio)azetidine-1-carbonyl)hexahydro-2H-pyrido[4,3-b][1,4]oxazin-3(4H)-one] displayed an IC50 of 23 nM. This IC50 lies about 28-fold lower than the previous one.
As to `O=C1CO[C@H]2CCN(C(=O)N3CC([S+]([O-])c4ccc(C(F)(F)F)cc4Cl)C3)C[C@H]2N1` (single isomer, unassigned) [Example 147], the concentration for half-maximal inhibition (IC50) was 12500 nM.
The molecule `O=C1CO[C@H]2CCN(C(=O)N3CC(C[S+]([O-])c4ccc(C(F)(F)F)cc4Cl)C3)C[C@H]2N1` (mixture of isomers) [Example 153, (4aR,8aS)-6-[3-[[2-Chloro-4-(trifluoromethyl)phenyl]sulfinylmethyl]azetidine-1-carbonyl]-4,4a,5,7,8,8a-hexahydropyrido[4,3-b][1,4]oxazin-3-one] gave an IC50 of 318 nM.
In turn, `O=C1CO[C@H]2CCN(C(=O)N3CC(CNC(c4ccccc4)C(F)(F)F)C3)C[C@H]2N1` (stereo partly drawn) [Example 71, (4aR,8aS)-6-(3-(((2,2,2-Trifluoro-1-phenylethyl)amino)methyl)azetidine-1-carbonyl)hexahydro-2H-pyrido[4,3-b][1,4]oxazin-3(4H)-one] showed an IC50 of 105 nM.
`COc1cccc(C#CC2CN(C(=O)N3CC[C@@H]4OCC(=O)N[C@@H]4C3)C2)c1` [Example 181, (4aR,8aS)-6-[3-[2-(3-Methoxyphenyl)ethynyl]azetidine-1-carbonyl]-4,4a,5,7,8,8a-hexahydropyrido[4,3-b][1,4]oxazin-3-one]: 13 nM corresponded to half-maximal inhibition (IC50). This IC50 lies about 8.1-fold lower than the previous one.
For `O=C1CO[C@H]2CCN(C(=O)N3CC(S(=O)(=O)c4ccc(C(F)(F)F)cc4Cl)C3)C[C@H]2N1` [Example 144, (4aR,8aS)-6-[3-[2-Chloro-4-(trifluoromethyl)phenyl]sulfonylazetidine-1-carbonyl]-4,4a,5,7,8,8a-hexahydropyrido[4,3-b][1,4]oxazin-3-one], inhibition was half-maximal at 2640 nM (IC50).
As to `O=C1CO[C@H]2CCN(C(=O)N3CC(C[S+]([O-])c4ccc(C(F)(F)F)cc4Cl)C3)C[C@H]2N1` (single isomer, unassigned) [Example 155], the IC50 came to 1980 nM. The IC50 values of the last two molecules are within 1.5-fold of each other.
Molecule `O=C1CO[C@H]2CCN(C(=O)N3CC(C#Cc4c(F)cc(C(F)(F)F)cc4Cl)C3)C[C@H]2N1` [Example 189, (4aR,8aS)-6-[3-[2-[2-Chloro-6-fluoro-4-(trifluoromethyl)phenyl]ethynyl]azetidine-1-carbonyl]-4,4a,5,7,8,8a-hexahydropyrido[4,3-b][1,4]oxazin-3-one] gave an IC50 of 1 nM.
In turn, `O=C1CO[C@H]2CCN(C(=O)N3CC(C#Cc4c(F)cccc4F)C3)C[C@H]2N1` [Example 159, (4aR,8aS)-6-(3-((2,6-Difluorophenyl)ethynyl)azetidine-1-carbonyl)hexahydro-2H-pyrido[4,3-b][1,4]oxazin-3(4H)-one] registered an IC50 of 34 nM.
As to `CN(CC1CN(C(=O)N2CC[C@@H]3OCC(=O)N[C@@H]3C2)C1)C(c1ccc(C(F)(F)F)cc1)C(F)(F)F` (stereo partly drawn) [Example 80, (4aR,8aS)-6-(3-((Methyl(2,2,2-trifluoro-1-(4-(trifluoromethyl)phenyl)ethyl)amino)methyl)azetidine-1-carbonyl)hexahydro-2H-pyrido[4,3-b][1,4]oxazin-3 (4H)-one], the IC50 is 4 nM.
Consider `Cc1ccccc1C#CC1CN(C(=O)N2CC[C@@H]3OCC(=O)N[C@@H]3C2)C1` [Example 173, (4aR,8aS)-6-(3-(o-Tolylethynyl)azetidine-1-carbonyl)hexahydro-2H-pyrido[4,3-b][1,4]oxazin-3(4H)-one], for which the IC50 was found to be 10 nM.
In turn, `O=C1CO[C@H]2CCN(C(=O)N3CC([S+]([O-])c4ccc(C(F)(F)F)cc4Cl)C3)C[C@H]2N1` (single isomer, unassigned) [Example 146] had an IC50 of 2720 nM.
For the molecule `Cc1ccccc1C#CC1CCN(C(=O)N2CC[C@@H]3OCC(=O)N[C@@H]3C2)CC1` [Example 194, (4aR,8aS)-6-(4-(o-Tolylethynyl)piperidine-1-carbonyl)hexahydro-2H-pyrido[4,3-b][1,4]oxazin-3(4H)-one], it took 31 nM to reach half-maximal inhibition (IC50). Compared with the last molecule, the IC50 is about 88-fold lower.
Molecule `O=C1CO[C@H]2CCN(C(=O)N3CC(C#Cc4ccccc4Cl)C3)C[C@H]2N1` [Example 133] displayed an IC50 of 9 nM.
Molecule `CN(C(=O)C1(c2cccc(C(F)(F)F)c2)CC1)C1CCN(C(=O)N2CC[C@@H]3OCC(=O)N[C@@H]3C2)CC1` [Example 82] gave an IC50 of 349 nM.
For `O=C1CO[C@H]2CCN(C(=O)N3CC(C#Cc4ccccc4OC(F)(F)F)C3)C[C@H]2N1` [Example 170, (4aR,8aS)-6-[3-[2-[2-(Trifluoromethoxy)phenyl]ethynyl]azetidine-1-carbonyl]-4,4a,5,7,8,8a-hexahydropyrido[4,3-b][1,4]oxazin-3-one], it took 4 nM to reach half-maximal inhibition (IC50). This IC50 is about 87-fold lower than that of the molecule before.
As to `COc1ccccc1C#CC1CCN(C(=O)N2CC[C@@H]3OCC(=O)N[C@@H]3C2)CC1` [Example 193, (4aR,8aS)-6-(4-((2-Methoxyphenyl)ethynyl)piperidine-1carbonyl)hexahydro-2H-pyrido[4,3-b][1,4]oxazin-3(4H)-one], the midpoint of inhibition, the IC50, lay at 86 nM.
`O=C1CO[C@H]2CCN(C(=O)N3CC(C#Cc4ccccc4OC(F)F)C3)C[C@H]2N1` [Example 175, (4aR,8aS)-6-[3-[2-[2-(Difluoromethoxy)phenyl]ethynyl]azetidine-1-carbonyl]-4,4a,5,7,8,8a-hexahydropyrido[4,3-b][1,4]oxazin-3-one] yielded an IC50 of 33 nM.
The molecule `CN(c1ccc(C(F)(F)F)cc1)C1CCN(C(=O)N2CC[C@@H]3OCC(=O)N[C@@H]3C2)CC1` (racemic) [Example 136, rac-(4aR,8aS)-6-[4-[N-methyl-4-(trifluoromethyl)anilino]piperidine-1-carbonyl]-4,4a,5,7,8,8a-hexahydropyrido[4,3-b][1,4]oxazin-3-one] displayed an IC50 of 22 nM.
